In patent US11608335B2, “Somatostatin modulators and uses thereof” (CRINETICS PHARMACEUTICALS, INC., priority 2018, dated 2023):

target: human somatostatin receptor subtype 5 (Homo sapiens, UniProt P35346); test: cAMP assay for SST5R (inhibition of cAMP via human SST5 receptor); conditions: not given
Sequence (P35346 whole entry): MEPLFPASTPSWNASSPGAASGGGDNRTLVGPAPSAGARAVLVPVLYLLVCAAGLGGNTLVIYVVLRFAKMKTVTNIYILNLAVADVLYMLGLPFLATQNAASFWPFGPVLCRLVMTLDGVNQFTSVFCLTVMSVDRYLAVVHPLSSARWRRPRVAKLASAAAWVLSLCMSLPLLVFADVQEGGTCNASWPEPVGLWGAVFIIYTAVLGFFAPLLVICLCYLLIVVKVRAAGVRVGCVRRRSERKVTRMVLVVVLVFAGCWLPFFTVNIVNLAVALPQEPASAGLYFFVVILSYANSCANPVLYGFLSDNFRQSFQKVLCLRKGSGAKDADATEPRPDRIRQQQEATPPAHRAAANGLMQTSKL

Compound | EC50
N#Cc1cc(F)cc(-c2cncc(-c3nc4cc(F)cc(F)c4[nH]3)c2N2CC[C@H](N)C2)c1 [Compound 2-87, 3-{4-[(3S)-3-aminopyrrolidin-1-yl]-5-(4,6-difluoro-1H-1,3-benzodiazol-2-yl)pyridin-3-yl}-5-fluorobenzonitrile] | < 10 nM
C#Cc1cccc2[nH]c(-c3cncc(-c4cccc(C#N)c4)c3N3CC[C@H](N)C3)nc12 [Compound 2-84, 3-{4-[(3S)-3-Aminopyrrolidin-1-yl]-5-(4-ethynyl-1H-1,3-benzodiazol-2-yl)pyridin-3-yl}benzonitrile] | < 10 nM
COc1ccc(-c2cncc(-c3nc4cccc(F)c4[nH]3)c2N2CC[C@H](N)C2)cc1C(N)=O [Compound 2-73, 5-{4-[(3S)-3-aminopyrrolidin-1-yl]-5-(4-fluoro-1H-1,3-benzodiazol-2-yl)pyridin-3-yl}-2-methoxybenzamide] | > 1000 nM
Cn1c(-c2cncc(-c3cccc(C#N)c3)c2N2CC[C@H](N)C2)nc2c(Cl)cccc21 [Compound 2-75, 3-{4-[(3S)-3-aminopyrrolidin-1-yl]-5-(4-chloro-1-methyl-1H-1,3-benzodiazol-2-yl)pyridin-3-yl}benzonitrile] | < 10 nM
CC1(N)CCN(c2c(-c3cccc(N4CCOC4=O)c3)cncc2-c2nc3cccc(F)c3[nH]2)C1 (stereo not shown) [Compound 2-17, 3-{3-[4-(3-amino-3-methylpyrrolidin-1-yl)-5-(4-fluoro-1H-1,3-benzodiazol-2-yl)pyridin-3-yl]phenyl}-1,3-oxazolidin-2-one] | 10 to 100 nM
Cc1cccc2cc(-c3cncc(-c4cc(F)cc(C#N)c4)c3N3CC[C@H](N)C3)[nH]c12 [Compound 2-137, 3-{4[(3S)-3-aminopyrrolidin-1-yl]-5-(7-methyl-1H-indol-2-yl)pyridin-3-yl}-5-fluorobenzonitrile] | 10 to 100 nM
Cc1cccc2nc(-c3cncc(-c4ccc(F)c(C#N)c4)c3N3CC[C@H](N)C3)n(C)c12 [Compound 2-134, 5-{4-[(3S)-3-aminopyrrolidin-1-yl]-5-(1,7-dimethyl-1H-1,3-benzodiazol-2-yl)pyridin-3-yl}-2-fluorobenzonitrile] | < 10 nM
CS(=O)(=O)c1cccc(-c2cncc(-c3nc4cc(F)cc(F)c4[nH]3)c2N2CC[C@H](N)C2)c1 [Compound 2-93, (3S)-1-[3-(4,6-difluoro-1H-1,3-benzodiazol-2-yl)-5-(3-methanesulfonylphenyl)pyridin-4-yl]pyrrolidin-3-amine] | 100 to 1000 nM
N#Cc1cccc(-c2cncc(-c3nc4cccc(F)c4[nH]3)c2N2C[C@H](CO)[C@@H](N)C2)c1 (racemic) [Compound 2-89, 3-{4-[trans-3-amino-4-(hydroxymethyl)pyrrolidin-1-yl]-5-(4-fluoro-1H-1,3-benzodiazol-2-yl)pyridin-3-yl}benzonitrile] | 10 to 100 nM
Cc1ccnc2nc(-c3cncc(-c4ccc(F)c(C#N)c4)c3N3CCC(C)(N)C3)[nH]c12 (stereo not shown) [Compound 2-119, 5-[4-(3-amino-3-methylpyrrolidin-1-yl)-5-{7-methyl-1H-imidazo[4,5-b]pyridin-2-yl}pyridin-3-yl]-2-fluorobenzonitrile] | < 10 nM
Cc1cccc2c1nc(-c1cncc(-c3cc(F)cc(C#N)c3)c1N1CC[C@H](N)C1)n2C [Compound 2-114, 3-{4-[(3S)-3-aminopyrrolidin-1-yl]-5-(1,4-dimethyl-1H-1,3-benzodiazol-2-yl)pyridin-3-yl}-5-fluorobenzonitrile] | < 10 nM
COc1cc(F)cc(-c2cncc(-c3nc4cc(F)cc(F)c4[nH]3)c2N2CC(CN)C2)c1 [Compound 1-58, 1-{1-[3-(4,6-difluoro-1H-1,3-benzodiazol-2-yl)-5-(3-fluoro-5-methoxyphenyl)pyridin-4-yl]azetidin-3-yl}methanamine] | < 10 nM
Cc1cccc(-c2cncc(-c3nc4cc(F)cc(F)c4[nH]3)c2N2CC(C(C)N)C2)c1F (stereo not shown) [Compound 1-76, 1-{1-[3-(4,6-difluoro-1H-1,3-benzodiazol-2-yl)-5-(2-fluoro-3-methylphenyl)pyridin-4-yl]azetidin-3-yl}ethan-1-amine] | < 10 nM
N#Cc1cc(-c2cncc(-c3nc4cccc(Cl)c4[nH]3)c2N2CC[C@H](N)C2)ccn1 [Compound 2-161, 4-[(3S)-3-aminopyrrolidin-1-yl]-5-(4-chloro-1H-1,3-benzodiazol-2-yl)-[3,4′-bipyridine]-2′-carbonitrile] | < 10 nM
Cc1cc(C)c2nc(-c3cncc(-c4cccc(C#N)c4)c3N3CC[C@](C)(N)C3)[nH]c2n1 [Compound 2-173, 3-{4-[(3S)-3-amino-3-methylpyrrolidin-1-yl]-5-{5,7-dimethyl-1H-imidazo[4,5-b]pyridin-2-yl}pyridin-3-yl}benzonitrile] | < 10 nM
Cc1cc(F)cc(-c2cncc(-c3nc4cccnc4[nH]3)c2N2CC(CN)C2)c1 [Compound 1-23, 1-{1-[3-(3-fluoro-5-methylphenyl)-5-{1H-imidazo[4,5-b]pyridin-2-yl}pyridin-4-yl]azetidin-3-yl}methanamine] | 100 to 1000 nM

Compound | EC50
CS(=O)(=O)c1cccc(-c2cncc(-c3nc4cccc(F)c4[nH]3)c2N2CC[C@H](N)C2)c1 [Compound 2-58, (3S)-1-[3-(4-fluoro-1H-1,3-benzodiazol-2-yl)-5-(3-methanesulfonylphenyl)pyridin-4-yl]pyrrolidin-3-amine] | 10 to 100 nM
Cc1cc(Cl)cc(-c2cncc(-c3nc4cc(F)cc(F)c4[nH]3)c2N2CC(CN)C2)c1 [Compound 1-20, 1-{1-[3-(3-chloro-5-methylphenyl)-5-(4,6-difluoro-1H-1,3-benzodiazol-2-yl)pyridin-4-yl]azetidin-3-yl}methanamine] | < 10 nM
N#Cc1cccc(-c2cncc(-c3nc4c(CO)cccc4[nH]3)c2N2CC[C@H](N)C2)c1 [Compound 2-91, 3-{4-[(3S)-3-aminopyrrolidin-1-yl]-5-[7-(hydroxymethyl)-1H-1,3-benzodiazol-2-yl]pyridin-3-yl}benzonitrile] | 100 to 1000 nM
Cc1ccnc2nc(-c3cncc(-c4ccc(F)c(C#N)c4)c3N3CC[C@H](N)C3)[nH]c12 [Compound 2-50, 5-{4-[(3S)-3-aminopyrrolidin-1-yl]-5-{7-methyl-1H-imidazo[4,5-b]pyridin-2-yl}pyridin-3-yl}-2-fluorobenzonitrile] | 10 to 100 nM
CC1(N)CCN(c2c(-c3ccc4[nH]ccc4c3)cncc2-c2nc3cccc(F)c3[nH]2)C1 (stereo not shown) [Compound 2-30, 1-[3-(4-fluoro-1H-1,3-benzodiazol-2-yl)-5-(1H-indol-5-yl)pyridin-4-yl]-3-methylpyrrolidin-3-amine] | 100 to 1000 nM
NC(=O)c1cc(F)cc(-c2cncc(-c3nc4cccc(F)c4[nH]3)c2N2CC[C@H](N)C2)c1 [Compound 2-72, 3-{4-[(3S)-3-aminopyrrolidin-1-yl]-5-(4-fluoro-1H-1,3-benzodiazol-2-yl)pyridin-3-yl}-5-fluorobenzamide] | < 10 nM
NCC1CN(c2c(-c3cc(F)c(F)c(F)c3)cncc2-c2nc3cc(F)cc(F)c3[nH]2)C1 [Compound 1-48, 1-{1-[3-(4,6-difluoro-1H-1,3-benzodiazol-2-yl)-5-(3,4,5-trifluorophenyl)pyridin-4-yl]azetidin-3-yl}methanamine] | < 10 nM
COc1c(F)cccc1-c1cncc(-c2nc3cc(F)cc(F)c3[nH]2)c1N1CC(C(C)N)C1 (stereo not shown) [Compound 1-73, 1-{1-[3-(4,6-difluoro-1H-1,3-benzodiazol-2-yl)-5-(3-fluoro-2-methoxyphenyl)pyridin-4-yl]azetidin-3-yl}ethan-1-amine] | < 10 nM
N#Cc1cc(Cl)cc(-c2cncc(-c3nc4cccc(F)c4[nH]3)c2N2CC[C@H](N)C2)c1 [Compound 2-5, 3-{4-[(3S)-3-aminopyrrolidin-1-yl]-5-(4-fluoro-1H-1,3-benzodiazol-2-yl)pyridin-3-yl}-5-chlorobenzonitrile] | 10 to 100 nM
N#Cc1cccc(-c2cncc(-c3nc4c(F)c(F)c(F)c(F)c4[nH]3)c2N2CC[C@H](N)C2)c1 [Compound 2-41, 3-{4-[(3S)-3-aminopyrrolidin-1-yl]-5-(4,5,6,7-tetrafluoro-1H-1,3-benzodiazol-2-yl)pyridin-3-yl}benzonitrile] | 10 to 100 nM
CN(C)c1ccc(-c2cncc(-c3nc4cccc(F)c4[nH]3)c2N2CCC(C)(N)C2)cn1 (stereo not shown) [Compound 2-14, 4′-(3-amino-3-methylpyrrolidin-1-yl)-5′-(4-fluoro-1H-1,3-benzodiazol-2-yl)-N,N-dimethyl-[3,3′-bipyridin]-6-amine] | 100 to 1000 nM
Cc1cc(F)cc(-c2cncc(-c3nc4cc(F)c(Cl)cc4[nH]3)c2N2CC(CN)C2)c1 [Compound 1-14, 1-{1-[3-(5-chloro-6-fluoro-1H-1,3-benzodiazol-2-yl)-5-(3-fluoro-5-methylphenyl)pyridin-4-yl]azetidin-3-yl}methanamine] | 10 to 100 nM
Cc1nccc2nc(-c3cncc(-c4ccc(F)c(C#N)c4)c3N3CCC(C)(N)C3)[nH]c12 (stereo not shown) [Compound 2-159, 5-[4-(3-amino-3-methylpyrrolidin-1-yl)-5-{4-methyl-3H-imidazo[4,5-c]pyridin-2-yl}pyridin-3-yl]-2-fluorobenzonitrile] | < 10 nM
NCC1CN(c2c(-c3cc(Cl)cc(C(F)(F)F)c3)cncc2-c2nc3cc(F)cc(F)c3[nH]2)C1 [Compound 1-40, 1-(1-{3-[3-chloro-5-(trifluoromethyl)phenyl]-5-(4,6-difluoro-1H-1,3-benzodiazol-2-yl)pyridin-4-yl}azetidin-3-yl)methanamine] | 10 to 100 nM
Cc1cc(-c2cncc(-c3nc4cccc(F)c4[nH]3)c2N2CC[C@H](N)C2)cc(N)n1 [Compound 2-130, 4-[(3S)-3-aminopyrrolidin-1-yl]-5-(4-fluoro-1H-1,3-benzodiazol-2-yl)-6′-methyl-[3,4′-bipyridin]-2′-amine] | 100 to 1000 nM
Cc1cc(F)cc(-c2cncc(-c3nc4cccc(F)c4n3C)c2N2CC(CN)C2)c1 [Compound 1-25, 1-{1-[3-(7-Fluoro-1-methyl-1H-1,3-benzodiazol-2-yl)-5-(3-fluoro-5-methylphenyl)pyridin-4-yl]azetidin-3-yl}methanamine] | 10 to 100 nM

same assay, conditions: SST5 over SST2, class symbols

Compound | Fold selectivity for SST5 vs SST2
Cc1ccnc2nc(-c3cncc(-c4ccc(F)c(C#N)c4)c3N3CCC(C)(N)C3)[nH]c12 (stereo not shown) [Compound 2-119, 5-[4-(3-amino-3-methylpyrrolidin-1-yl)-5-{7-methyl-1H-imidazo[4,5-b]pyridin-2-yl}pyridin-3-yl]-2-fluorobenzonitrile] | ++ (++=100 to 499)

same assay, conditions: read-out: SST5 potency; inhibition of cAMP via human SST5 receptor; Table B

Compound | EC50
Cc1ccnc2nc(-c3cncc(-c4ccc(F)c(C#N)c4)c3N3CCC(C)(N)C3)[nH]c12 (stereo not shown) [Compound 2-119, 5-[4-(3-amino-3-methylpyrrolidin-1-yl)-5-{7-methyl-1H-imidazo[4,5-b]pyridin-2-yl}pyridin-3-yl]-2-fluorobenzonitrile] | < 10 nM
